For one experiment, the target named is Keap1/Nrf2 (Homo sapiens, UniProt Q14145). Description: Keap1-Nrf2 protein-protein interaction inhibitors, dose response, biochemical, fluorescence polarization, cherry-picked samples (AID 588683).
Experiment [1] deals with Heat shock protein HSP 90-alpha (Homo sapiens, UniProt P07900). The experiment in a line: Luminescence-based dose response biochemical high throughput screening assay for inhibitors of the Heat Shock Protein 90 (HSP90). [Related pubchem assays: 1831 (Summary AID.), 1846 (Confirmation screen.), 1789 (Primary screen.)].
For experiment [2], the target named is Induced myeloid leukemia cell differentiation protein Mcl-1 (Homo sapiens, UniProt Q07820). Type of experiment: functional.
Experiment [3] can be described thus: THP-1 cell cytotoxicity, dose response, cytotoxicity control for Vif-APOBEC3G degradation inhibitor project, THP-1 cells (AID 1117359). It counts as functional. Conditions: Human immunodeficiency virus 1, THP-1.
Experiment [4] has as its target T1, Sentrin-specific protease 8 (Homo sapiens, UniProt Q96LD8).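 Note: luminescence read-out of SENP8 inhibition, dose-response confirmation following an ultra-high-throughput screen.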
T1 sequence (Q96LD8 whole entry): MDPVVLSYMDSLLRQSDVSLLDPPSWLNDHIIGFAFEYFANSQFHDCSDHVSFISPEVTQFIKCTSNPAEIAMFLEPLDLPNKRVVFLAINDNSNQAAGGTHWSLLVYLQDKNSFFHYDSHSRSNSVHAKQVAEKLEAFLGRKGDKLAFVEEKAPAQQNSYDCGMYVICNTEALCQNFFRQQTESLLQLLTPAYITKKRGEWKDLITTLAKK
It counts as functional.

For another experiment, the target named is Beta-arrestin-1 (Homo sapiens, UniProt P49407). Description: inhibitors of arrestin peptide binding to AP2, dose response, biochemical, cherry pick 1, beta2-adaptin appendage, flow cytometry (AID 588783). It counts as functional. For orientation: Flow cytometry measures light scatter and fluorescence of single cells or particles in a stream.
The next experiment concerns the target T2, Caspase-3 (Homo sapiens, UniProt P42574).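 Note: Dose-response selectivity test against caspase-3 for candidate inhibitors of sentrin-specific proteases (SENPs).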
T2 sequence (P42574 whole entry): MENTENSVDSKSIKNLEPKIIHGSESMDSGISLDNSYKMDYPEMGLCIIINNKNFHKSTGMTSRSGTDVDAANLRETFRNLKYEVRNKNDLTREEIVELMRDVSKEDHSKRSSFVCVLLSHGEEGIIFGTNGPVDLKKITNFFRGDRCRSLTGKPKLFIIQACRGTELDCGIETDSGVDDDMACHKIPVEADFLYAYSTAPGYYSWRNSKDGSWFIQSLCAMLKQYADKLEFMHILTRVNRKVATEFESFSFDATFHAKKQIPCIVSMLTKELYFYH
Type of experiment: functional.

The target in experiment [5] is T3, Sentrin-specific protease 7 (Homo sapiens, UniProt Q9BQF6).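 Note: Luminescence-based dose-response confirmation of ultra-high-throughput screening hits, measuring inhibition of SENP7.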
T3 sequence (Q9BQF6 whole entry): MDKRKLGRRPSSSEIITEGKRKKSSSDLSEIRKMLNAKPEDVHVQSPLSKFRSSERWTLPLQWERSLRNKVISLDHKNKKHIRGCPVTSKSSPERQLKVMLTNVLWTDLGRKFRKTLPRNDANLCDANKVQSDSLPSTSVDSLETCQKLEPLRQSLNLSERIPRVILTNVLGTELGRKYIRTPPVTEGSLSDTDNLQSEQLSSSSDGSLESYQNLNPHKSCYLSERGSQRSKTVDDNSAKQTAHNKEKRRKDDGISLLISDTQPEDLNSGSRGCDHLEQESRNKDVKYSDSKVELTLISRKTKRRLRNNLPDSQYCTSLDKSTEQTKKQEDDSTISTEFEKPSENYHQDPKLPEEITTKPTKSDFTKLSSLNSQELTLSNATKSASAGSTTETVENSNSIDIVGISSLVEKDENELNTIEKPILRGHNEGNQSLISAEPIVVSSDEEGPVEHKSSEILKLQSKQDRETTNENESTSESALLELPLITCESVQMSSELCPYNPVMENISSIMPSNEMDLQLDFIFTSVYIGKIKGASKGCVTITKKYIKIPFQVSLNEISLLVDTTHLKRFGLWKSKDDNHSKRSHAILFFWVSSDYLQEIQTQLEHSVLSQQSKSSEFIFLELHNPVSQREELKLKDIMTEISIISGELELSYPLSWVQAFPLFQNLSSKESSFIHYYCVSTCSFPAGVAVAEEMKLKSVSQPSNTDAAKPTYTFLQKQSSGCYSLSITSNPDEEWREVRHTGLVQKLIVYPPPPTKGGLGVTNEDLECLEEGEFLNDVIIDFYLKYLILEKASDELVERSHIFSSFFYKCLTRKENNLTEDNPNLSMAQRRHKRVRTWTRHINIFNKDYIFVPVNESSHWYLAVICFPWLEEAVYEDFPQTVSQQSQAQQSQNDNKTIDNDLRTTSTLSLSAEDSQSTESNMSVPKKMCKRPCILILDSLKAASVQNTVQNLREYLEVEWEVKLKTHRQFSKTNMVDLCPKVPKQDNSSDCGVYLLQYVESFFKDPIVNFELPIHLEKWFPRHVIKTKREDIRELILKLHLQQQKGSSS
Type of experiment: functional.

The next experiment has as its target T4, Protein RecA (Mycobacterium tuberculosis, UniProt P9WHJ3).
T4 sequence (P9WHJ3 whole entry): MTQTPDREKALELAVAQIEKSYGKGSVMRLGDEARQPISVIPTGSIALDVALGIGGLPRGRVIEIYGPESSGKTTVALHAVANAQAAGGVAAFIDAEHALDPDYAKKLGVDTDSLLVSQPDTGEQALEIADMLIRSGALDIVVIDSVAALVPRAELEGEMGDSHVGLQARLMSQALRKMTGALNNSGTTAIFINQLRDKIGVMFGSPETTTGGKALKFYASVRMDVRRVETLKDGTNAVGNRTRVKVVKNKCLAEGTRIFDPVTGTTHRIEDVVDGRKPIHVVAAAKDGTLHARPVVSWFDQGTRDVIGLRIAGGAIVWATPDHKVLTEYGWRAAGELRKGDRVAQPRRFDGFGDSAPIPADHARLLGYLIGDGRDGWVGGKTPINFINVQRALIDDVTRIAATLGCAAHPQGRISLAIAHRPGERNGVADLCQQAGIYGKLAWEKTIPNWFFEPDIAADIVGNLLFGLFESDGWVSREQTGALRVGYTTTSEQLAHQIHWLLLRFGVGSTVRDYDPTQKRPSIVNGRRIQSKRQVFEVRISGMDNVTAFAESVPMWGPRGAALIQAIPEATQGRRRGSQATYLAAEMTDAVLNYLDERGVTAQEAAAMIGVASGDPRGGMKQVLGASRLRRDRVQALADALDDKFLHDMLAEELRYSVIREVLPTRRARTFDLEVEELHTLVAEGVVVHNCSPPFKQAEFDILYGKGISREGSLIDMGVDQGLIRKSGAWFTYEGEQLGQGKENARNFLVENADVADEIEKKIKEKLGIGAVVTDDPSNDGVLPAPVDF
Description: Fluorescence Cell-Free Homogeneous Dose Retest to Identify Inhibitors of RecA-Intein Splicing Activity. [Related pubchem assays (depositor defined):AID2097, AID2223, AID489010, AID492950]. Type of experiment: functional.

The test system of experiment [6] is Streptococcus sp. 'group A'. Description: growth inhibition of control SK(-) GAS strain, dose response, counter-screen for streptokinase expression inhibitor project, luminescence, kanamycin, BacTiterGlo, confirmation (AID 1900). It counts as functional, organism-based. Background: The purpose of a counterscreen is to sort out artefacts and off-target activity.

Structures are written as SMILES. The source made the active and inactive calls.

Sequence of Beta-arrestin-1 (P49407 whole entry): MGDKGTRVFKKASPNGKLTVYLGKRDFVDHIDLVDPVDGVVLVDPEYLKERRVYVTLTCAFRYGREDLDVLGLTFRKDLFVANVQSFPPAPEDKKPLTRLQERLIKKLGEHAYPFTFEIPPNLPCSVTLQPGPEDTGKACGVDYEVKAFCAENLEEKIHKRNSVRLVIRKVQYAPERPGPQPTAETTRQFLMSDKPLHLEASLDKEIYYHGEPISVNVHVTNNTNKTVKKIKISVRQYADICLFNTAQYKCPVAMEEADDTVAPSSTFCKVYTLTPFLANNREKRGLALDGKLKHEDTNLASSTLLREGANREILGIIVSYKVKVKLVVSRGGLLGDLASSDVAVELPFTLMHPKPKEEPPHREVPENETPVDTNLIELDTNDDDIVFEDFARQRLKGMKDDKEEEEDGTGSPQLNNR
Sequence of Keap1/Nrf2 (Q16236 whole entry): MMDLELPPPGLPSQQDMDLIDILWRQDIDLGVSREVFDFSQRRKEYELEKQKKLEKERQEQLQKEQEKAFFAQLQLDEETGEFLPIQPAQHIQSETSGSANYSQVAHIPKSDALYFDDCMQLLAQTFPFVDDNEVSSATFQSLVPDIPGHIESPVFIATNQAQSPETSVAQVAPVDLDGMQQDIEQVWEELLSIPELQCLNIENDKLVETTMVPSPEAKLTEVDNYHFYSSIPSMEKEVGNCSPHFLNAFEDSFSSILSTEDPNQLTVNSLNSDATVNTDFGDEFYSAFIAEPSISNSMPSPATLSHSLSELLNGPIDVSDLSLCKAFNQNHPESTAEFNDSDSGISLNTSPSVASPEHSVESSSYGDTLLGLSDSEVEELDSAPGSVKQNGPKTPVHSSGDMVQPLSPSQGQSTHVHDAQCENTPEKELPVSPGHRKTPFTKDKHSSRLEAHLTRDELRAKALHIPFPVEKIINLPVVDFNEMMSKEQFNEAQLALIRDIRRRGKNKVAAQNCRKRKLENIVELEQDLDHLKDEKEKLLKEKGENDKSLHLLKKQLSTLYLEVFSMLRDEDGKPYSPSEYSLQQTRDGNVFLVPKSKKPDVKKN
Sequence of Keap1/Nrf2 (Q14145 whole entry): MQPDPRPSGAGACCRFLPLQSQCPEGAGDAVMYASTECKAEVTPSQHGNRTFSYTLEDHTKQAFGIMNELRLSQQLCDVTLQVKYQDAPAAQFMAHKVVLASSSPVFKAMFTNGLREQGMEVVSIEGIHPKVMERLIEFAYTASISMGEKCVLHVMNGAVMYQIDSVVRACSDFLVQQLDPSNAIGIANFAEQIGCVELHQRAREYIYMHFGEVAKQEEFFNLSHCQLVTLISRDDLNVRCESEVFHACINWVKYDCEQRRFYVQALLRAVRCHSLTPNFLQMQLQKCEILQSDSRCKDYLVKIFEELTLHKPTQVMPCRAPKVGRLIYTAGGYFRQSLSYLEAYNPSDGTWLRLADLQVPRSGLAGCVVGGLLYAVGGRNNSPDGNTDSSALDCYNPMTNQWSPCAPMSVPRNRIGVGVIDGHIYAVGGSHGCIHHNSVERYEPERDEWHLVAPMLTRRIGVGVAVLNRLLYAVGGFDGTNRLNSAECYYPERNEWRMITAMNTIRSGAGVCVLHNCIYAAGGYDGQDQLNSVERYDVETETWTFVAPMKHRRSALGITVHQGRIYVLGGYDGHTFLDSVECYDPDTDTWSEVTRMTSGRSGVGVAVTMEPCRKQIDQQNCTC
Sequence of Induced myeloid leukemia cell differentiation protein Mcl-1 (Q07820 whole entry): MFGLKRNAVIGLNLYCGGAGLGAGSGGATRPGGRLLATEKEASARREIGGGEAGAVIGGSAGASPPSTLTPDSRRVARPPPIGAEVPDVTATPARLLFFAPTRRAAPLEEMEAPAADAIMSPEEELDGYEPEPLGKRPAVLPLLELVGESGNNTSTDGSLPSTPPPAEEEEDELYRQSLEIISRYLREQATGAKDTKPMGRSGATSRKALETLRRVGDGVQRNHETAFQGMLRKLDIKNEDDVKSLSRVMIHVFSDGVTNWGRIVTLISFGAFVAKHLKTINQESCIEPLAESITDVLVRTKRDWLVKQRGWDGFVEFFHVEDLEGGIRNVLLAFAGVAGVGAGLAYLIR

As usually defined, the AC50 is the concentration at which the activity in the assay is half-maximal. The IC50 is the concentration needed to halve the response being measured. Regarding `COC(=O)c1ccccc1NC1=C/C(=N\S(=O)(=O)c2ccc(C(=O)O)cc2)c2ccccc2C1=O`, the AC50 on Keap1/Nrf2 was > 52 µM (inactive). Besides, in [1], the IC50 is 1.26 µM (active).
The CC50 is the concentration at which the toxic effect on the cells reaches its halfway point. One may read the EC50 as the concentration needed to bring the measured effect to its halfway point. With `NC(=O)C1CCN(C2=C(Cl)C(=O)c3ccccc3C2=O)CC1`, the IC50 in experiment [2] was > 54 µM (not active); in experiment [4], 8.88 µM (active); on Beta-arrestin-1, 22.2 µM (inactive); at Caspase-3, 7.35 µM (active); in experiment [5], 17.8 µM (active). Also, the CC50 in experiment [3] is 9.71 µM (active). Also, at Protein RecA, the half-maximal effective concentration (EC50) was 0.146 µM (active).
As for `O=c1c2ccccc2nc(/C=C/c2cccnc2)n1Cc1ccccc1`, the concentration for a half-maximal effect (EC50) on Protein RecA was 9.92 µM (active).
For `O=C(O)c1ccc(N/N=C/c2ccc(OC(=O)c3ccccc3Cl)cc2)cc1`, the 50% effective concentration (EC50) in experiment [6] is 2.91 µM (active). The values for the IC50 (in experiment [4]; at Caspase-3; in experiment [5]) were 2.05 µM (active), 14.8 µM (active) and 3.74 µM (active), respectively.

(Values after ChEMBL document CHEMBL1201862, “PubChem BioAssay data set” (2004).)
